{"source": "patent US20110190192A1", "about": "“METHODS FOR TREATING ERECTILE DYSFUNCTION IN PATIENTS WITH INSULIN-DEPENDENT DIABETES” (Cebix Inc., priority 2009, published 2011)", "key": {"[1]": {"system": "type 1 diabetes patients with peripheral neuropathy", "assay": "Adverse events", "quoted_text": "(§1) The safety measurements comprised collection of AEs, spontaneously reported by the patient or recorded by the investigator at each clinical visit.\n(§2) An AE was classified as “unexpected event” (i.e., if not specifically listed in the Investigator's Brochure) in terms of nature, severity, or frequency. All AEs, including intercurrent illnesses and increased severity or frequency of sign/symptoms of a concomitant disease was reported and documented as described below. AEs were documented on an “Adverse Event/Serious Adverse Event” page of the CRF and in the patient's medical records. Any AE occurring at any time after the end of the study, considered to be caused by the study medication—and therefore a possible adverse drug reaction—was reported to the sponsor.\n(§3) Hypoglycemic events are common events in insulin-treated patients. For practical reasons only severe hypoglycemic events, i.e., if the patient required assistance from another person in order to regain normoglycaemia, were reported as an AE.\n(§4) The period of observation for AEs extended from the time the patient started on trial medication until end of the study. AEs were divided into the categories “serious” and “non-serious”. This determined the procedure used to report/document the AE.\n(§5) Descriptive statistics were used for safety variables. […] The safety analysis set included all patients who obtained at least one dose of the investigational drug. AEs were coded according to the MedDRA dictionary. The frequencies of AEs are tabulated by body system and included/preferred term."}, "[2]": {"system": "type 1 diabetes patients with peripheral neuropathy", "assay": "ECG and vital signs", "assay_type": "in vivo, human", "conditions": "for BPd (diastolic blood pressure) change, mean ± SD / BPd (diastolic blood pressure) change, median / BPs (systolic blood pressure) change, mean ± SD / BPs (systolic blood pressure) change, median / Heart rate change, mean ± SD / Heart rate change, median / QTc-interval Bazett change, mean ± SD / QTc-interval Bazett change, median / QTc-interval Fredericia change, mean ± SD / QTc-interval Fredericia change, median: baseline to 6 months (visit 4), PP data set", "description": "ECG was performed at baseline and at end of study, i.e., visit 4 (at 6 months±2 weeks from the S/B visit)."}, "[3]": {"assay": "C-peptide concentrations in plasma (time-resolved fluoroimmunoassay)", "conditions": "dose ranges of the study; very small patient number", "protocol": "Blood samples for determination of C-peptide in plasma were drawn at the S/B visit, visit 2, and at end of study (visit 4).\nThe sampling of C-peptide in plasma at visits 2 and 4 coincided with the clinical visit and the time between the most recent administration of the trial drug and sampling varied between patients.\nC-peptide plasma levels were measured at baseline, and after 3 and 6 months of treatment. Analysis was performed by the Department of Clinical Chemistry Karolinska University Hospital, Solna using a time-resolved fluoroimmunoassay (AutoDelfia, Wallac Oy, Turku, Finland).\nC-peptide plasma levels were also measured pre-dosing in the morning in 22 randomly selected patients at the Karolinska Hospital after 4.5 months of study treatment (visit 3)."}, "[4]": {"system": "type 1 diabetes patients with peripheral neuropathy", "conditions": "in vivo", "quoted_text": "as §1, §2, §3, §4, §5"}, "[5]": {"conditions": "high-dose C-peptide, treatment emergent, any severity, PP data set"}, "[6]": {"conditions": "low-dose C-peptide, treatment emergent, any severity, PP data set"}}}
{"smiles": "CC(C)C[C@H](NC(=O)[C@H](C)NC(=O)[C@H](CC(C)C)NC(=O)[C@@H]1CCCN1C(=O)[C@H](CCC(N)=O)NC(=O)[C@H](CC(C)C)NC(=O)[C@H](CO)NC(=O)CNC(=O)[C@H](C)NC(=O)CNC(=O)[C@@H]1CCCN1C(=O)CNC(=O)CNC(=O)CNC(=O)[C@H](CC(C)C)NC(=O)[C@H](CCC(=O)O)NC(=O)[C@@H](NC(=O)[C@H](CCC(N)=O)NC(=O)CNC(=O)[C@@H](NC(=O)[C@H](CCC(N)=O)NC(=O)[C@H](CC(C)C)NC(=O)[C@H](CC(=O)O)NC(=O)[C@H](CCC(=O)O)NC(=O)[C@H](C)NC(=O)[C@@H](N)CCC(=O)O)C(C)C)C(C)C)C(=O)N[C@@H](CCC(=O)O)C(=O)NCC(=O)N[C@@H](CO)C(=O)N[C@@H](CC(C)C)C(=O)N[C@@H](CCC(N)=O)C(=O)O", "note": "[C-peptide, Recombinant human C-peptide]", "values": [{"measurement": "Adverse drug reactions or significant changes in safety variables (blood chemistries and vital signs)", "setting": "[1]; 500-1,500 nmoL/24 h, 6 months", "value": "no adverse drug reactions or significant changes in safety variables"}, {"measurement": "Local reactions", "setting": "[1]; S.C. injection, 6 months", "value": "No local reactions were reported"}, {"measurement": "Deaths during the study", "setting": "[1]; all groups", "value": "No deaths"}, {"measurement": "Serious adverse events (SAEs)", "setting": "[1]; high-dose C-peptide (1,500 nmoL/24 h)", "value": "Two"}, {"measurement": "Relationship of the SAEs to the trial medication", "setting": "[1]; high-dose C-peptide, investigators' assessment", "value": "unlikely/not related"}, {"measurement": "Dizziness (SOC Injury poisoning, procedural complications), number of AEs", "setting": "[1]; [5]", "value": 1}, {"measurement": "Hyperaesthesia, number of AEs", "setting": "[1]; [5]", "value": 1}, {"measurement": "Hyperaesthesia, number of AEs probably/possibly related to study drug", "setting": "[1]; [5]", "value": "(1)"}, {"measurement": "Hypoglycemia, number of AEs probably/possibly related to study drug", "setting": "[1]; [5]", "value": "(1)"}, {"measurement": "Injection site burning, number of AEs", "setting": "[1]; [5]", "value": 1}, {"measurement": "Injection site burning, number of AEs probably/possibly related to study drug", "setting": "[1]; [5]", "value": "(1)"}, {"measurement": "Pain in extremity (SOC Musculoskeletal and connective tissue disorder), number of AEs", "setting": "[1]; [5]", "value": 4}, {"measurement": "Paraesthesia, number of AEs probably/possibly related to study drug", "setting": "[1]; [5]", "value": "(2)"}, {"measurement": "Skin infection (SOC Infections and infestations), number of AEs", "setting": "[1]; [5]", "value": 1}, {"measurement": "Skin infection (SOC Skin and subcutaneous tissue disorders), number of AEs", "setting": "[1]; [5]", "value": 2}, {"measurement": "Tendosynovitis stenosans, number of AEs", "setting": "[1]; [5]", "value": 1}, {"measurement": "Total number of AEs", "setting": "[1]; [5]", "value": 156}, {"measurement": "Total number of AEs probably/possibly related to study drug", "setting": "[1]; [5]", "value": "(5)"}, {"measurement": "AEs of moderate intensity", "setting": "[1]; high-dose group", "value": 43, "unit": "AEs"}, {"measurement": "AEs of severe intensity", "setting": "[1]; high-dose group", "value": 9, "unit": "AEs"}, {"measurement": "AEs reported as possible/probable related to the study drug", "setting": "[1]; high-dose group", "value": 5, "unit": "AEs"}, {"measurement": "Number of AEs reported", "setting": "[1]; high-dose group, n=52, ITT", "value": 154, "unit": "AEs"}, {"measurement": "Patients with AEs", "setting": "[1]; high-dose group, out of 52", "value": 44, "unit": "patients"}, {"measurement": "Cardiac arrhythmia (SVES), number of AEs", "setting": "[1]; [6]", "value": 1}, {"measurement": "Dizziness (SOC Nervous system disorders), number of AEs", "setting": "[1]; [6]", "value": 2}, {"measurement": "Elevated serum creatinine, number of AEs", "setting": "[1]; [6]", "value": 1}, {"measurement": "Hepatic enzyme increase, number of AEs probably/possibly related to study drug", "setting": "[1]; [6]", "value": "(1)"}, {"measurement": "Hyperglycemia, number of AEs probably/possibly related to study drug", "setting": "[1]; [6]", "value": "(1)"}, {"measurement": "Hyperthermeasthesia, number of AEs", "setting": "[1]; [6]", "value": 2}, {"measurement": "Hyperthermeasthesia, number of AEs probably/possibly related to study drug", "setting": "[1]; [6]", "value": "(2)"}, {"measurement": "Hypoglycemia, number of AEs probably/possibly related to study drug", "setting": "[1]; [6]", "value": "(1)"}, {"measurement": "Insulin sensitivity increased, number of AEs", "setting": "[1]; [6]", "value": 1}, {"measurement": "Insulin sensitivity increased, number of AEs probably/possibly related to study drug", "setting": "[1]; [6]", "value": "(1)"}, {"measurement": "Musculoskeletal chest pain, number of AEs", "setting": "[1]; [6]", "value": 1}, {"measurement": "Pain in extremity (SOC Musculoskeletal and connective tissue disorder), number of AEs", "setting": "[1]; [6]", "value": 3}, {"measurement": "Pain in extremity (SOC Musculoskeletal and connective tissue disorder), number of AEs probably/possibly related to study drug", "setting": "[1]; [6]", "value": "(1)"}, {"measurement": "Paraesthesia, number of AEs probably/possibly related to study drug", "setting": "[1]; [6]", "value": "(1)"}, {"measurement": "Skin infection (SOC Infections and infestations), number of AEs", "setting": "[1]; [6]", "value": 5}, {"measurement": "Tachycardia (stress related), number of AEs", "setting": "[1]; [6]", "value": 1}, {"measurement": "Total number of AEs", "setting": "[1]; [6]", "value": 173}, {"measurement": "Total number of AEs probably/possibly related to study drug", "setting": "[1]; [6]", "value": "(8)"}, {"measurement": "AEs of moderate intensity", "setting": "[1]; low-dose group", "value": 51, "unit": "AEs"}, {"measurement": "AEs of severe intensity", "setting": "[1]; low-dose group", "value": 1, "unit": "AEs"}, {"measurement": "AEs reported as possible/probable related to the study drug", "setting": "[1]; low-dose group", "value": 8, "unit": "AEs"}, {"measurement": "Number of AEs reported", "setting": "[1]; low-dose group, n=56, ITT", "value": 173, "unit": "AEs"}, {"measurement": "Patients with AEs", "setting": "[1]; low-dose group, out of 56", "value": 48, "unit": "patients"}, {"measurement": "Decrease in systolic blood pressure, high-dose vs low-dose group", "setting": "[2]; 6 months, p<0.004, not statistically different from placebo", "value": "significantly greater decrease"}, {"measurement": "BPd (diastolic blood pressure) change, mean ± SD", "setting": "[2]; high-dose C-peptide", "value": "−2.6 ± 8.0", "unit": "mmHg"}, {"measurement": "BPd (diastolic blood pressure) change, median", "setting": "[2]; high-dose C-peptide", "value": "−1.0", "unit": "mmHg"}, {"measurement": "BPs (systolic blood pressure) change, mean ± SD", "setting": "[2]; high-dose C-peptide", "value": "−8.8 ± 10.0", "unit": "mmHg"}, {"measurement": "BPs (systolic blood pressure) change, median", "setting": "[2]; high-dose C-peptide", "value": "−8.0", "unit": "mmHg"}, {"measurement": "Heart rate change, mean ± SD", "setting": "[2]; high-dose C-peptide", "value": "−3.2 ± 10.0", "unit": "bpm"}, {"measurement": "Heart rate change, median", "setting": "[2]; high-dose C-peptide", "value": "−4.0", "unit": "bpm"}, {"measurement": "QTc-interval Bazett change, mean ± SD", "setting": "[2]; high-dose C-peptide", "value": "-4.5 ± 20.3", "unit": "ms"}, {"measurement": "QTc-interval Bazett change, median", "setting": "[2]; high-dose C-peptide", "value": 0.0, "unit": "ms"}, {"measurement": "QTc-interval Fredericia change, mean ± SD", "setting": "[2]; high-dose C-peptide", "value": "-0.5 ± 16.2", "unit": "ms"}, {"measurement": "QTc-interval Fredericia change, median", "setting": "[2]; high-dose C-peptide", "value": 0.0, "unit": "ms"}, {"measurement": "BPd (diastolic blood pressure) change, mean ± SD", "setting": "[2]; low-dose C-peptide", "value": "−2.7 ± 8.2", "unit": "mmHg"}, {"measurement": "BPd (diastolic blood pressure) change, median", "setting": "[2]; low-dose C-peptide", "value": "−1.0", "unit": "mmHg"}, {"measurement": "BPs (systolic blood pressure) change, mean ± SD", "setting": "[2]; low-dose C-peptide", "value": "−2.1 ± 12.8", "unit": "mmHg"}, {"measurement": "BPs (systolic blood pressure) change, median", "setting": "[2]; low-dose C-peptide", "value": "−1.0", "unit": "mmHg"}, {"measurement": "Heart rate change, mean ± SD", "setting": "[2]; low-dose C-peptide", "value": "−0.9 ± 8.2", "unit": "bpm"}, {"measurement": "Heart rate change, median", "setting": "[2]; low-dose C-peptide", "value": "−2.0", "unit": "bpm"}, {"measurement": "QTc-interval Bazett change, mean ± SD", "setting": "[2]; low-dose C-peptide", "value": "-0.1 ± 17.5", "unit": "ms"}, {"measurement": "QTc-interval Bazett change, median", "setting": "[2]; low-dose C-peptide", "value": 0.0, "unit": "ms"}, {"measurement": "QTc-interval Fredericia change, mean ± SD", "setting": "[2]; low-dose C-peptide", "value": "0.9 ± 14.1", "unit": "ms"}, {"measurement": "QTc-interval Fredericia change, median", "setting": "[2]; low-dose C-peptide", "value": 1.3, "unit": "ms"}, {"measurement": "Accumulation following repeated dosing", "setting": "[3]", "value": "no significant accumulation"}, {"measurement": "Acute HIV infection, AE intensity (number of AE incidences)", "setting": "[4]", "value": "M (1)"}, {"measurement": "Herpes zoster, AE intensity (number of AE incidences)", "setting": "[4]", "value": "M (1)"}]}
